Measurements as given in patent publication US20110077239A1, “GLYCINE RECEPTOR AGONISTS FOR THE TREATMENT OF PHANTOM PHENOMENA” (priority 2007, published 2011).

Assays:
inner ear = conditions: chronic local administration to the inner ear of guinea pigs; high frequencies; cited from earlier work
auditory nerve = test: Measurements of compound action potentials (CAP) of the auditory nerve after local administration; type: in vivo, rat
Text: In the experiments adult female Wistar rats (Charles River, Sulzfeld, Germany) in the age of 2 to 4 months were used.
To get an access to the inner ear (cochlea) the middle ear is opened by surgery: A small opening behind the ear drum enables the access to the round window of the cochlea, in the massive bone of the bony labyrinth this is the only non-traumatic access to the inner ear. A silver wire electrode having a surface melted silver pearl is carefully positioned through the opening on the membrane of the round window, secured with tissue glue and the opening is closed with dental cement. The silver wire is conducted in the neck of the animal through the skin towards the outside and can then directly be connected to the electrophysiology amplifier for the measurements. The direct electrical access through the CAP electrode enables the direct largely interference-free down lead of the compound potentials of the auditory nerves resulting from an acoustic stimulation. In the signal response, besides the compound action potentials of the auditory nerves (CAP), also the formation of the excitation in the outer hair sense cells (OHC) can be detected as cochlea microphone potentials (CM). These three potentials in the measurements in vivo provide information on: 1) the activity of the auditory nerve close to the threshold up to high levels of acoustic pressure and, therefore, also on the modulation of the transmission, which is mediated by a glycinergic efferent feedback to the afferences of the IHCs, 2) the integrity of the IHCs (via the course of the SPs at increasing levels of acoustic pressures), 3) the amplification by the OHC (through the phase synchronicity of the CM signals with the auditory stimulus).
For this purpose the compound action potentials were activated by different sound stimuli (broadband click stimuli, pure sounds having frequencies of between 4 and 32 kHz, and degrees of loudness from 0 to 100 dB SPL).

O=C1C[C@@H]2OCC=C3CN4CC[C@]56c7ccccc7N1[C@H]5[C@H]2[C@H]3C[C@H]46 [strychnine]
efferent activity and threshold shift after acoustic trauma (inner ear): disrupts efferent activity and results in a permanent threshold shift

NCCS(=O)(=O)O [taurine]
amplitude of the CAP signals two days after local administration (auditory nerve; 2 days after LA, high and low degrees of loudness, in relation to the untreated condition): still reduced | CAP amplitudes at high degrees of loudness after local administration (auditory nerve; local administration at round window niche, taurine 5 μl of a 50 mM solution, strychnine 5 μl of a 10 mM solution, high degrees of loudness): overlapping of the CAP amplitude function | CAP amplitudes at low to medium degrees of loudness after local administration (auditory nerve; local administration at round window niche, taurine 5 μl of a 50 mM solution, low to medium degrees of loudness): increase slower | amplitude of the CAP signal within 1-3 hours after local administration (auditory nerve; within 1-3 hours after local administration, measurements at 8 kHz, FIG. 7): reduction of the amplitude of the CAP signals
